For one series, the system named is HCT-116. The series is described as follows: Antiproliferative activity against human HCT-116 cells assessed as inhibition of cell proliferation measured after 72 hrs by MTT assay. Type of series: functional, cell-based. The conditions noted are these: HCT-116, 72 h.
Another series relates to L1210. Nature of the series: Antiproliferative activity against mouse L1210 cells assessed as inhibition of cell proliferation measured after 72 hrs by MTT assay. Type of series: functional, cell-based. As to conditions: L1210, 72 h. (In general: Tetrazolium assays rely on reduction of a dye to a coloured formazan, in cell work by metabolically active cells.)
A further series deals with Huh-7. The series is described as follows: Antiproliferative activity against human Huh-7 cells assessed as inhibition of cell proliferation measured after 72 hrs by MTT assay. In kind it is functional, cell-based. The conditions noted are these: Huh-7, 72 h.
The test system of another series is A549. Nature of the series: Antiproliferative activity against human A549 cells assessed as inhibition of cell proliferation measured after 72 hrs by MTT assay. Type of series: functional, cell-based. As to conditions: A549, 72 h.
Another series deals with HT-29. Nature of the series: Antiproliferative activity against human HT-29 cells assessed as inhibition of cell proliferation measured after 72 hrs by MTT assay. In kind it is functional, cell-based. The conditions noted are these: HT-29, 72 h.
The nature of series [1]: Antiproliferative activity against […] MB49 cells assessed as inhibition of cell proliferation measured after 72 hrs by MTT assay. In kind it is functional, cell-based. The conditions noted are these: MB49, 72 h.
Series [2] concerns T-24. The series is described as follows: Antiproliferative activity against human T24 cells assessed as inhibition of cell proliferation measured after 72 hrs by MTT assay. In kind it is functional, cell-based. The conditions noted are these: T-24, 72 h.
Another series deals with Bel-7402. Nature of the series: Antiproliferative activity against human Bel-7402 cells assessed as inhibition of cell proliferation measured after 72 hrs by MTT assay. In kind it is functional, cell-based. As to conditions: Bel-7402, 72 h.
Series [3] in a line: Cytotoxicity against human LO2 cells measured after 72 hrs by MTT assay. In kind it is toxicity, cell-based, L02.
The subject of series [4] is T-24. Nature of the series: Antiproliferative activity against human T24 cells assessed as inhibition of cell proliferation at 0.25 uM incubated for 72 to 120 hrs by MTT assay relative to control. As to conditions: time 72-120 hrs. Type of series: functional.

Structures are written as SMILES.

The source of these data is ChEMBL document CHEMBL6103652, “Niacin Ester Derivative of Brefeldin A as a Potential Dual-Target Arf1/BMX Inhibitor for Bladder Cancer” (J Nat Prod, 2025).

As usually defined, the IC50 is the concentration that inhibits the measured activity by half. In the case of `COc1cccc2c1C(=O)c1c(O)c3c(c(O)c1C2=O)C[C@@](O)(C(=O)CO)C[C@@H]3O[C@H]1C[C@H](N)[C@H](O)[C@H](C)O1` [DOXORUBICIN], the half-maximal inhibitory concentration (IC50) in the series on HCT-116 was below 1000 nM; in the series on L1210, below 1000 nM; in the series on Huh-7 it was 620 nM; in the series on A549 it was 440 nM; with HT-29, 420 nM; in series [1], above 1000 nM. Also, the IC50 in the series on T-24 [2] amounted to 250 nM.

In the case of `C[C@H]1CCC/C=C/[C@@H]2C[C@H](O)C[C@H]2[C@H](O)/C=C/C(=O)O1` [BREFELDIN A], the IC50 in the series with HCT-116 was 100 nM; in the series with L1210 it was 1570 nM; in the series on Bel-7402 it was 120 nM; in the series with Huh-7, 180 nM; in the series on A549 it was 60 nM; in the series on HT-29, 70 nM. Also, the concentration for half-maximal inhibition (IC50) in series [1] amounted to 2160 nM; with T-24 [2], 80 nM. This molecule registered a half-inhibitory concentration (IC50) at 72 h in series [3] of 140 nM.

Usually inhibition stands for the share of the control response that was lost under treatment. As to `C[C@H]1CCC/C=C/[C@@H]2C[C@H](OC(=O)c3cccnc3)C[C@H]2[C@H](O)/C=C/C(=O)O1`, the inhibition at 0.25 µM with T-24 [4] is below 40%.

With `C[C@H]1CCC/C=C/[C@@H]2C[C@H](OC(=O)c3cccnc3)C[C@H]2[C@H](OC(=O)c2cccnc2)/C=C/C(=O)O1`, the inhibition at 0.25 µM with T-24 [4] was below 40%.
